These results are taken from PubChem BioAssay (NCI).

Values joined by “and” are separate entries in the source; they are usually repeats but may differ in a detail not shown here. Equal values may be shown once.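 Method: 48-hour compound exposure of cells in 96-well plates, five concentrations, linear interpolation of endpoints. GI50 is the concentration that inhibits growth by half. TGI: concentration producing complete growth inhibition.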

What all share (experiment): growth of human tumour cells (NCI), 48 h
Experiment [1] has as its system PC-3 prostate.
The test system of experiment [2] is UACC-62 melanoma.
Experiment [3] has as its system HS 578T breast.
The test system of experiment [4] is OVCAR-5 ovarian.
In experiment [5] the test system is NCI-H460 lung.
The test system of experiment [6] is NCI-H226 lung.
The subject of experiment [7] is HL-60(TB) leukemia.
The test system of experiment [8] is M14 melanoma.
Experiment [9] concerns MDA-MB-231 breast.
The test system of experiment [10] is HT29 colon.

Turning to `Nc1cc(O)ccc1N=Nc1ccc(-c2nc3ccccc3[nH]2)cc1`, the GI50 in [1] is 20.4 µM; in experiment [2], 17.1 µM; in [3], 72.1 µM; in [4] it was greater than 100 µM; in experiment [5], 10.2 µM; in [6] it was greater than 100 µM. In addition, the GI50 in experiment [7] was 44.6 µM; in experiment [8], greater than 100 µM; in experiment [9], 68.7 µM. For the same compound, the TGI is greater than 100 µM in experiment [1]; greater than 100 µM in [2]; greater than 100 µM in experiment [3]; greater than 100 µM in experiment [4]; 35.8 µM in experiment [5]; greater than 100 µM in [6]. Moreover, the TGI in [7], in [8] and in [9] was greater than 100 µM each time.
For the compound `CC1=C(/C=C/C(C)=C/C=C/C(C)=C/C=N/NC(=S)NC(=S)N/N=C/C=C(C)/C=C/C=C(C)/C=C/C2=C(C)CCCC2(C)C)C(C)(C)CCC1`, the GI50 is 1.91 µM and 1.07 µM in experiment [10]; 3.52 µM and 1.75 µM in [1]; 1.48 µM and 0.89 µM in experiment [2]; 3.25 µM and 1.91 µM in [3]; 3.49 µM and 2.84 µM in experiment [4]; 2.35 µM and 1.66 µM in [5]. The GI50 in experiment [6] was 1.06 µM and 1.05 µM; in experiment [7], 1.77 µM and 1 µM; in [8] it was 1.24 µM and 0.918 µM; in experiment [9] it was 3.99 µM and 3.67 µM. For the same compound, the TGI in experiment [10] is 8.83 µM and 3.69 µM; in experiment [1] it was 12.7 µM and 7.23 µM; in [2] it was 6.09 µM and 2.43 µM; in [3] it was 18.7 µM and 9.97 µM; in experiment [4] it was 9.72 µM and 8.04 µM; in [5] it was 8.68 µM and 6.36 µM. In addition, the TGI was 2.68 µM and 2.47 µM in [6]; 9.22 µM and 4.3 µM in experiment [7]; 3.73 µM and 1.74 µM in experiment [8]; 11 µM and 10.6 µM in [9].
For the compound `COc1ccccc1C1=C(Nc2ccccc2)C(=O)NC1=O`, the GI50 is greater than 25 µM in experiment [10]; greater than 25 µM in [1]; greater than 25 µM in experiment [2]; 6.25 µM in experiment [3]; greater than 25 µM in experiment [4]; greater than 25 µM in [5]. Besides, the GI50 in experiment [7], in experiment [8] and in experiment [9] was greater than 25 µM in each case. For the same compound, the TGI in experiment [10], in experiment [1], in experiment [2], in [3], in [4] and in experiment [5] was greater than 25 µM throughout. For the same compound, the TGI in [7], in [8] and in experiment [9] was greater than 25 µM each time.
As for `CCCCCCNC(=O)Oc1ccc(/C(=C(/C)Cc2ccc(OC)cc2)c2ccc(OCCCN(C)C)cc2)cc1`, the GI50 in experiment [10] was 4.4 µM; in [1] it was 14.6 µM; in experiment [2], 16.6 µM; in experiment [3], 15.5 µM; in [4] it was 15.7 µM; in experiment [5], 14.1 µM. Further, the GI50 was 19.4 µM in [6], 10.5 µM in [7], 12.3 µM in [8] and 15.3 µM in experiment [9]. In addition, the TGI in experiment [10] is 15.2 µM; in experiment [1] it was 28.2 µM; in [2], 30.4 µM; in experiment [3], 35.7 µM; in experiment [4] it was 29.8 µM; in experiment [5], 28.2 µM. The TGI amounted to 36 µM in experiment [6], 24.9 µM in [7], 26.1 µM in experiment [8] and 29.9 µM in experiment [9].
`CN(COC(=O)c1ccccc1)c1nc(N(C)COC(=O)c2ccccc2)nc(N(C)COC(=O)c2ccccc2)n1`: the TGI in experiment [10], in [1], in [2], in [3], in [4] and in experiment [5] was greater than 100 µM throughout. For the same compound, the TGI in experiment [6] was greater than 100 µM; in experiment [7], greater than 100 µM; in experiment [8], greater than 100 µM; in [9] it was 53.4 µM.
Consider `COC(=O)C1OC2(CCCC3CC32)O[C@H]1C(=O)OC` (stereo partly drawn), for which the TGI in experiment [10], in experiment [1], in [2], in [3], in [4] and in experiment [5] was greater than 100 µM in each case. For the same compound, the TGI in experiment [6], in [7], in experiment [8] and in experiment [9] was greater than 100 µM in each case.
On to `ON(Cc1ccccc1)C(=S)c1ccccc1`, for which the TGI in experiment [10] was greater than 100 µM; in [1], greater than 100 µM; in [2], 25.4 µM; in experiment [3] it was greater than 100 µM; in [4], greater than 100 µM; in experiment [5], 22.3 µM. The TGI is 93 µM in experiment [6], 7.75 µM in [7], 55.6 µM in [8] and greater than 100 µM in experiment [9].
With `O=C1C2=C(c3ccccc31)C(c1ccccc1)N1C(=O)CSC1=N2` (stereo not drawn), the TGI was 96.9 µM in experiment [10]; greater than 100 µM in [1]; greater than 100 µM in experiment [2]; 82.2 µM in experiment [3]; greater than 100 µM in experiment [4]; greater than 100 µM in experiment [5]. Further, the TGI is greater than 100 µM in experiment [6], 95.8 µM in experiment [7], greater than 96.6 µM in experiment [8] and greater than 100 µM in experiment [9].
Turning to `Cc1ccc(/C=C2\CN(C(=O)C(Cl)Cl)C/C(=C\c3ccc(C)cc3)C2=O)cc1`, the GI50 was 0.241 µM in experiment [10]; 0.209 µM in experiment [1]; 0.237 µM in experiment [2]; 0.343 µM in experiment [3]; 0.333 µM in experiment [4]; 0.245 µM in experiment [6]. Also, the GI50 is 0.25 µM in experiment [7], 0.261 µM in experiment [8] and 0.337 µM in [9]. Besides, the TGI in experiment [1] is 0.672 µM; in [2], 0.632 µM; in experiment [3] it was 3.71 µM; in experiment [4] it was 1.46 µM; in [6], 0.622 µM; in [7], 1.33 µM. The results for the TGI in experiment [8] and in experiment [9] were 0.784 µM and 1.57 µM, respectively.
